Results published in the NIST ThermoML archive (doi:10.1016/j.jct.2012.10.011).

Test: molar heat capacity at constant pressure
Settings: 101.33 kPa, Vacuum adiabatic calorimetry

CN=C=O [methyl isocyanate]
Settings	molar heat capacity at constant pressure [J/K/mol]
80 K, Crystal	54.31
85.79 K, Crystal	57.74
88.54 K, Crystal	59.08
90 K, Crystal	59.83
91.98 K, Crystal	60.67
94.33 K, Crystal	61.76
97.68 K, Crystal	63.18
100 K, Crystal	64.14
100.44 K, Crystal	64.31
102.2 K, Crystal	64.94
104.38 K, Crystal	65.94
109.48 K, Crystal	67.86
110 K, Crystal	68.03
112.6 K, Crystal	68.66
115.84 K, Crystal	69.87
118.15 K, Crystal	70.67
120 K, Crystal	71.25
120.45 K, Crystal	71.25
121.38 K, Crystal	71.63
126.84 K, Crystal	73.26
128.41 K, Crystal	73.55
130 K, Crystal	73.97
134.41 K, Crystal	75.06
134.59 K, Crystal	75.1
135.09 K, Crystal	75.27
136.89 K, Crystal	75.48
136.94 K, Crystal	75.65
140 K, Crystal	76.36
141.89 K, Crystal	76.82
141.97 K, Crystal	76.94
142.35 K, Crystal	76.96
146.02 K, Crystal	77.82
148.22 K, Crystal	78.32
149.33 K, Crystal	78.45
150 K, Crystal	78.7
151.79 K, Crystal	79.04
155.37 K, Crystal	79.91
156.39 K, Crystal	80
160 K, Crystal	81
160.19 K, Crystal	79.83
161.8 K, Crystal	81.59
163.79 K, Crystal	82.42
166.13 K, Crystal	83.6
167.44 K, Crystal	83.09
168.2 K, Crystal	82.26
169.15 K, Crystal	83.01
169.49 K, Crystal	82.34
170 K, Crystal	83.39
171.56 K, Crystal	83.51
172.5 K, Crystal	83.39
173.3 K, Crystal	84.35
180 K, Liquid	103.4
183.24 K, Liquid	103.39
186.5 K, Liquid	103.34
187.36 K, Liquid	103.26
190 K, Liquid	103.2
192.13 K, Liquid	103.09
196.44 K, Liquid	103.09
197.5 K, Liquid	102.93
198.47 K, Liquid	103
200 K, Liquid	103
201 K, Liquid	102.97
202.92 K, Liquid	103
210 K, Liquid	103
211.33 K, Liquid	103
219.74 K, Liquid	103
220 K, Liquid	103
228.75 K, Liquid	102.9
230 K, Liquid	103.1
238.24 K, Liquid	103.3
240 K, Liquid	103.4
247.64 K, Liquid	103.6
250 K, Liquid	103.8
257.03 K, Liquid	104.1
260 K, Liquid	104.3
266.32 K, Liquid	104.6
270 K, Liquid	104.9
275.54 K, Liquid	105.4
280 K, Liquid	105.8
284.64 K, Liquid	106.1
290 K, Liquid	106.7
293.07 K, Liquid	107
300 K, Liquid	107.7
301.23 K, Liquid	107.7
